Laboratory results from ChEMBL document CHEMBL1287809, “Ixorapeptide I and ixorapeptide II, bioactive peptides isolated from Ixora coccinea” (Bioorg Med Chem Lett, 2010).
≈ marks a conversion by molar mass, not a printed value. Where a SMILES comes first, the peptide text is derived from it. The star is where a group is joined. Fmoc = O=C(OCC1c2ccccc2-c2ccccc21)*

How the values were obtained:
[1] = Antiinflammatory activity in human neutrophils assessed as inhibition of FMLP/CB-induced superoxide anion release at 10 ug/ml; format: functional; settings: Neutrophil
[2] = Antiinflammatory activity in human neutrophils assessed as inhibition of FMLP/CB-induced elastase release at 10 ug/ml; format: functional; settings: Neutrophil
[3] = Antiaggregatory activity in human platelets assessed as inhibition of collagen-induced platelet aggregation by aggregometry; format: functional, cell-based
[4] = Antiaggregatory activity in human platelets assessed as inhibition of thrombin-induced platelet aggregation by aggregometry; format: functional, cell-based
HepG2 = test: Cytotoxicity against human HepG2 cells by MTT assay; format: functional, cell-based
[5] = Cytotoxicity against human Hep3B cells by MTT assay; format: functional, cell-based, Hep 3B2
Ca9-22 = test: Cytotoxicity against human Ca9-22 cells by MTT assay; format: functional, cell-based
A549 = test: Cytotoxicity against human A549 cells by MTT assay; format: functional, cell-based
MCF7 = test: Cytotoxicity against human MCF7 cells by MTT assay; format: functional, cell-based
MDA-MB-231 = test: Cytotoxicity against human MDA-MB-231 cells by MTT assay; format: functional, cell-based
[6] = Antiinflammatory activity in human neutrophils assessed as inhibition of FMLP/CB-induced superoxide anion release; format: functional, cell-based; settings: Neutrophil
[7] = Antiinflammatory activity in human neutrophils assessed as inhibition of FMLP/CB-induced elastase release; format: functional, cell-based, Neutrophil; settings: for IC50: Homo sapiens, Neutrophil
[8] = Antiinflammatory activity in human Neutrophil assessed as inhibition of superoxide anion release at 10 ug/ml; format: functional, cell-based
[9] = Antiinflammatory activity in human Neutrophil assessed as inhibition of elastase release at 10 ug/ml; format: functional, cell-based
Neutrophil = test: Ratio of compound IC50 to PMSF IC50 for antiinflammatory activity in human neutrophils assessed as inhibition of FMLP/CB-induced elastase release; format: functional

SMILES	IC50 [3] [µg/mL]	IC50 [4] [µg/mL]	IC50 (HepG2) [µg/mL]	IC50 [5] [µg/mL]	IC50 (Ca9-22) [µg/mL]	IC50 (A549) [µg/mL]	IC50 (MDA-MB-231) [µg/mL]	other results
C[C@@]1(CO)CCC[C@]2(C)[C@@H]1CC[C@]13C[C@H](CC[C@H]12)[C@@H](C(=O)O)C3								inhibition at 10 µg/mL [1]: 31.8%; inhibition at 10 µg/mL [2]: 15.6%
C[C@@H]1O[C@@H](Oc2cc(O)c3c(=O)c(O[C@@H]4O[C@@H](C)[C@H](O)[C@@H](O)[C@H]4O)c(-c4ccc(O)cc4)oc3c2)[C@H](O)[C@H](O)[C@H]1O [KAEMPFERITRIN]								inhibition at 10 µg/mL [1]: 8.27%; inhibition at 10 µg/mL [2]: 12.5%
C[C@H]1O[C@H](Oc2cc(O)c3c(=O)c(O)c(-c4ccc(O)cc4)oc3c2)[C@@H](O)[C@@H](O)[C@@H]1O	34.8 (≈ 80.4 µM)	> 50						
c1ccc2c(c1)[I+]c1ccccc1-2 [DIPHENYLENEIODONIUM]								IC50 [6]: 0.35 µg/mL
O=S(=O)(F)Cc1ccccc1 [PHENYLMETHYLSULFONYLFLUORIDE]								IC50 [7]: 19.9 µg/mL (≈ 114 µM)
CC(=O)OC[C@]1(C)CCC[C@]2(C)[C@@H]1CC[C@]13C[C@H](CC[C@H]12)[C@@H](C(=O)O)C3								IC50 [6]: 5.11 µg/mL (≈ 14.1 µM); inhibition at 10 µg/mL [2]: 44.7%
O=c1cc(-c2ccc(O)c(O)c2)oc2cc(O)cc(O)c12 [LUTEOLIN]	2.56 (≈ 8.94 µM)	> 50	7.36 (≈ 25.7 µM)	8.03 (≈ 28.1 µM)	8.55 (≈ 29.9 µM)	10.2 (≈ 35.7 µM)	9.65 (≈ 33.7 µM)	IC50 (MCF7): 9.5 µg/mL (≈ 33.2 µM)
CC1(C)CC[C@]2(C(=O)O)CC[C@]3(C)C(=CC[C@@H]4[C@@]5(C)CCC(=O)C(C)(C)[C@@H]5CC[C@]43C)[C@@H]2C1 [OLEANONIC ACID]			> 20	> 20	18 (≈ 39.7 µM)	> 20	> 20	IC50 (MCF7): > 20 µg/mL
C=C(C)[C@@H]1CC[C@]2(C(=O)O)CC[C@]3(C)[C@H](CC[C@@H]4[C@@]5(C)CCC(=O)C(C)(C)[C@@H]5CC[C@]43C)[C@@H]12 [BETUNOLIC ACID]	44.7 (≈ 98.3 µM)	> 50	4.32 (≈ 9.5 µM)	13.8 (≈ 30.4 µM)	14.5 (≈ 31.8 µM)	8.93 (≈ 19.6 µM)	> 20	IC50 (MCF7): 19.3 µg/mL (≈ 42.5 µM); IC50 [8]: 16.8 µg/mL (≈ 36.9 µM); IC50 [9]: 128 µg/mL (≈ 281 µM)
CCCCCCCCCCCCCCCCCCCC(=O)OCC(O)CO (centres undefined)								IC50 [6]: 2.47 µg/mL (≈ 6.39 µM); inhibition at 10 µg/mL [2]: 41.8%
Oc1ccc([C@]23Oc4cc(O)cc(O)c4[C@H](c4c(cc(O)c5c4O[C@@H](c4ccc(O)c(O)c4)[C@@H](O)C5)O2)[C@H]3O)cc1								inhibition (INH) [7]: 2.5%
COc1cccc2c1C(=O)c1c(O)c3c(c(O)c1C2=O)C[C@@](O)(C(=O)CO)C[C@@H]3O[C@H]1C[C@H](N)[C@H](O)[C@H](C)O1 [DOXORUBICIN]			0.23 (≈ 0.423 µM)	0.42 (≈ 0.773 µM)	14.5 (≈ 26.6 µM)	0.63 (≈ 1.16 µM)	1.32 (≈ 2.43 µM)	
CC[C@H](C)[C@H](NC(=O)C(NC(=O)[C@H](Cc1ccccc1)N(C)C)C(C(C)C)n1ccc2ccccc21)C(=O)O (some centres undefined) [IXORAPEPTIDE II]								IC50 [6]: 0.21 µg/mL (≈ 0.393 µM); IC50 [7]: 0.27 µg/mL (≈ 0.505 µM); Ratio IC50 (Neutrophil): 73
C=C(C)[C@@H]1CC[C@]2(C)CC[C@]3(C)[C@H](CC[C@@H]4[C@@]5(C)CC[C@H](O)C(C)(C)[C@@H]5CC[C@]43C)[C@@H]12 [LUPEOL]			19.8 (≈ 46.4 µM)	18.8 (≈ 44.1 µM)	16.8 (≈ 39.3 µM)	> 20	> 20	IC50 (MCF7): > 20 µg/mL

Now from value to compound, other results behind:

IC50 [3] [µg/mL]	IC50 [4] [µg/mL]	SMILES	IC50 (HepG2) [µg/mL]	IC50 [5] [µg/mL]	IC50 (Ca9-22) [µg/mL]	IC50 (A549) [µg/mL]	IC50 (MDA-MB-231) [µg/mL]	other results
13.6 (≈ 75.4 µM)	> 50	CC(=O)Oc1ccccc1C(=O)O [ASPIRIN]						
29.5 (≈ 59 µM)	20.5 (≈ 41 µM)	COC(=O)[C@H](Cc1ccccc1)NC(=O)[C@@H](NC(=O)OCC1c2ccccc2-c2ccccc21)C(C)C [IXORAPEPTIDE I] (Fmoc-Val-Phe-OMe)	> 20	3.36 (≈ 6.71 µM)	20 (≈ 40 µM)	> 20	> 20	IC50 (MCF7): > 20 µg/mL
27.6 (≈ 95.3 µM)	> 50	Oc1cc(O)c2c(c1)O[C@H](c1ccc(O)c(O)c1)[C@@H](O)C2 [CIANIDANOL]						
22.2 (≈ 76.5 µM)	> 50	Oc1cc(O)c2c(c1)O[C@H](c1ccc(O)c(O)c1)[C@H](O)C2 [(-)-EPICATECHIN]						
41.7 (≈ 217 µM)	> 50	COc1cc2ccc(=O)oc2cc1O [SCOPOLETIN]						
3.55 (≈ 12.4 µM)	> 50	O=c1c(O)c(-c2ccc(O)cc2)oc2cc(O)cc(O)c12 [KAEMPFEROL]	> 20	17.7 (≈ 62 µM)	> 20	> 20	> 20	IC50 (MCF7): > 20 µg/mL
34.5 (≈ 75.6 µM)	> 50	C[C@H]1[C@H](C)CC[C@]2(C(=O)O)CC[C@]3(C)C(=CC[C@@H]4[C@@]5(C)CC[C@H](O)C(C)(C)[C@@H]5CC[C@]43C)[C@H]12 [URSOLIC ACID]						IC50 [6]: 0.29 µg/mL (≈ 0.635 µM); IC50 [7]: 0.31 µg/mL (≈ 0.679 µM)
